Several values for one entry are separate records, joined by “and”; a condition that tells them apart may be missing. Identical values can stand only once.
Tests used:
PBD1 F559E mutant = target: T1, PBD1 F559E mutant (Homo sapiens, UniProt P53350, F559E); assay: FP-based binding/inhibition assay, PBD1 F559E; details: PBD1 F559E at EC85
T1 construct: constructs expressing PBD1 (residues 345–603) WT (pKM7650), F559D (pKM7878), F559E (pKM7879); His; TEV site (N); made in house; host or cells: bacteria (E. coli)
T1 sequence (P53350 345-603 F559E): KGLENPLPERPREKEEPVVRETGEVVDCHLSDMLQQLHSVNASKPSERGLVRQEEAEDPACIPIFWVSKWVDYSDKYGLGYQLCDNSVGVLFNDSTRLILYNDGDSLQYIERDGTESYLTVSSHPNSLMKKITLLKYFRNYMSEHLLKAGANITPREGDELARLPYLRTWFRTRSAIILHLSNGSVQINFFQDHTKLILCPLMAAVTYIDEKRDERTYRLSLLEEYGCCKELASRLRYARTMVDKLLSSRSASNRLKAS
Method: (§1) FP assays were carried out essentially as described previously ([35], [36]). FITC-conjugated ligands (15 nM) were mixed with PBDs at their EC85 concentrations. All the samples were analyzed approximately 30 min after reaction in a 384-well format using the SpectraMax Paradigm multimode microplate detection platform (Molecular Devices). Data were analyzed after carrying out at least three independent experiments using GraphPad Prism software version 8.
(§2) Fig. S4. Generation of F559 mutants for in vitro and cell-based assays in Fig. 4. (A) SDS-PAGE showing the proteins used for the FP assays in Fig. 4 A and B. CBB, a Coomassie Brilliant Blue– stained gel. (B) Summary of Kd and EC85 values for PBD1 WT and mutants. The Kd values for PBD1 WT and mutants were determined after extrapolating them from the binding curves as the concentration at which 50% of the FITC-Ahx-DPPLHSpTAI-NH2 are PBD1-bound. The EC85 values indicate the effective concentration of 85% of the maximal concentration calculated for each protein. The FP values were obtained 30 minutes after incubation. For the F559K and F559R mutants, we were not able to determine the EC85 values and therefore used 2 µM of these proteins for the assays in Fig. 4B. N.D., not determined. […]

PBD1 F559K mutant = target: T2, PBD1 F559K mutant (Homo sapiens, UniProt P53350, F559K); assay: FP-based binding/inhibition assay, PBD1 F559K; details: PBD1 F559K, 2 µM protein
T2 construct: constructs expressing PBD1 (residues 345–603) WT (pKM7650); His; TEV site (N); made in house; host or cells: bacteria (E. coli)
T2 sequence (P53350 345-603 F559K): as the sequence (P53350 345-603 F559E) above, with E215K counted along it
Method: as §1, §2

Plk2 PBD (PBD2) = target: T3, Plk2 PBD (PBD2) (Homo sapiens, UniProt Q9NYY3); assay: FP-based inhibition assay, PBD2; type: binding; details: bacterially expressed purified PBD, FITC-ligand 15 nM, PBD at EC85
T3 construct: Purification of PBD2-His (355–685) (pKM3358) and its S652F mutant (pKM7980); His (C); made in house; host or cells: bacteria (E. coli)
T3 sequence (Q9NYY3 355-685): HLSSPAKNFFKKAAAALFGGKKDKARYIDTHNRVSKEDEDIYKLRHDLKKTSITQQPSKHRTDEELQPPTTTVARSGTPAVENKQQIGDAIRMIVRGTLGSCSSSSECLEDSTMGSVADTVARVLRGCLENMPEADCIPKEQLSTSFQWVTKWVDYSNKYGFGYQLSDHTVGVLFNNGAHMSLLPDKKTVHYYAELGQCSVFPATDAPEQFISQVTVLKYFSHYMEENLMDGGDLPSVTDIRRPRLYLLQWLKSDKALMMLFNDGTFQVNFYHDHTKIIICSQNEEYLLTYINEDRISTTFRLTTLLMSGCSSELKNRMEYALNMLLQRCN
Method: as §1, with “FITC-conjugated ligands (15 nM) were mixed with PBDs at their EC85 concentrations.” left out

Plk1 PBD (PBD1) = target: T4, Plk1 PBD (PBD1) (Homo sapiens, UniProt P53350); assay: FP-based inhibition assay, PBD1; type: binding
T4 construct: constructs expressing PBD1 (residues 345–603) WT (pKM7650); His; TEV site (N); made in house; host or cells: bacteria (E. coli)
T4 sequence (P53350 345-603): as the sequence (P53350 345-603 F559E) above, with E215F counted along it
Method: as §1, with “FITC-conjugated ligands (15 nM) were mixed with PBDs at their EC85 concentrations.” left out

PBD3 A612F mutant = target: T5, PBD3 A612F mutant (Homo sapiens, UniProt Q9H4B4, A612F); assay: FP-based inhibition assay, PBD3 A612F; type: binding; details: MBP-PBD3 A612F
T5 construct: MBP-PBD3-His (335–646) (pKM3359) and its A612F (pKM7981); His (C); made in house; host or cells: bacteria (E. coli)
T5 sequence (Q9H4B4 335-646 A612F): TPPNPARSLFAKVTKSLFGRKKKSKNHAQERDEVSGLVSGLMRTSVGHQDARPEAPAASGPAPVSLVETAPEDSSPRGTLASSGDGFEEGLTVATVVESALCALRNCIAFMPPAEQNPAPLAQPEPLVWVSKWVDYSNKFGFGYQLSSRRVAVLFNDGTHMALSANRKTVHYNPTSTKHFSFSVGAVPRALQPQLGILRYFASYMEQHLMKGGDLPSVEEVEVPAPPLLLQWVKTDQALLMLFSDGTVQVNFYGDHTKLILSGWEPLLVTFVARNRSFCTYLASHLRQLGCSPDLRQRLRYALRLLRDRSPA
Method: as §1
Fig. S3. Sequence alignment showing unique PBD2 S652 and PBD3 A612 residues and FP-based Allopole-A inhibition assays carried out with PBD2 S652F and PBD A612F mutants. (A) Human PBD1 (Uniprot ID: P53350), PBD2 (Uniprot ID: Q9NYY3), and PBD3 (15niport ID:Q9H4B4) sequences were aligned using Clustal Omega. The polo-box cap and L1 loop regions were adjusted based on the structural superposition of PBD1 (PDB ID: 3HIK), PBD2 (PDB_ID: 4RS6), and the AlphaFold model of PBD3 (https://alphafold.ebi.ac.uk). […]
with PBD2 and MBP-PBD3 are working properly under our conditions. […] The Kd values for the indicated proteins were determined after extrapolating them from the binding curves as the […]
concentration at which 50% of FITC-conjugated ligands (FITC-GPMQTSpTPKNG for PBD2 and FITC-GPLATSpTPKNG for PBD3) (5) are protein-bound. The EC85 values indicate the effective concentration of 85% of the maximal concentration calculated for each protein. […]

[1] = Solubility in PBS (imaging of insoluble particles, dynamic light scattering); type: physicochemical; details: PBS buffer (pH 7.4)
Method: All samples were analyzed after adjusting the concentration to 100 μM solution in the PBS buffer (pH 7.4) containing 1% DMSO. The measurements were carried out at 25 °C using the DynaPro NanoStar system (Wyatt Technology). The intensity of the scattered light was measured as a function of time, and the resulting data were used to calculate the size and distribution of the particles in the sample. Collected data were analyzed using the DYNAMICS software to calculate the mean size and polydispersity index of the particles in the sample. At least three repeat measurements were performed to ensure that the results were accurate and reproducible.
Fig. S1. Solubility and activity of Allopole and its related compounds. (A) Images showing insoluble
particles of 200 µM of the indicated compounds dissolved in the PBS buffer. The aggregates of […]

## O=c1c2sc(Cl)cc2n2c(=S)[nH]nc2n1CC1CC1 [Allopole-A]
PBD1 F559E mutant
  Inhibition of FITC-phosphopeptide binding (in words): failed to inhibit
PBD1 F559K mutant
  Inhibition of FITC-phosphopeptide binding (in words): failed to inhibit
Plk2 PBD (PBD2)
  PBD2 IC50 ± SD: N. S.
Plk1 PBD (PBD1); FP, bacterially expressed purified PBD, FITC-ligand 15 nM, PBD at EC85, read-out: PBD1 IC50 ± SD
  IC50: 2.5 nM and 2.53 nM
Plk1 PBD (PBD1); PBD1 WT at EC85
  Inhibition of FITC-phosphopeptide binding (in words): effectively inhibited PBD1 WT
PBD3 A612F mutant
  Inhibition in FP assay (in words): not inhibitable

## Cn1cnc([N+](=O)[O-])c1Sc1nnc2n(CC3CC3)c(=O)c3sc(Cl)cc3n12 [Allopole]
[1]
  Solubility (in words): greatly increased solubility

Reference: article PMC10629583, “Specific inhibition of an anticancer target, polo-like kinase 1, by allosterically dismantling its mechanism of substrate recognition” (Proceedings of the National Academy of Sciences of the …, 2023)
